Reference: PMC10620772, “Design, synthesis, and biological evaluation of new pyrimidine-5-carbonitrile derivatives as novel anti-cancer, dual EGFR^WT/COX-2 inhibitors with docking studies” (RSC Advances, 2023)

What was measured:
Assay type in all cases: cell-based, human
HL-60(TB) = experiment: NCI60 antitumor screening; conditions: Homo sapiens; 10 μM single dose; HL-60(TB) (leukaemia); read-out: growth inhibition percent (GI%)
SN12C = experiment: NCI60 antitumor screening; conditions: Homo sapiens; 10 μM single dose; SN12C (renal cancer); read-out: growth inhibition percent (GI%)
NCI/ADR-RES = experiment: NCI60 antitumor screening; conditions: Homo sapiens; 10 μM single dose; NCI/ADR-RES (ovarian cancer); read-out: growth inhibition percent (GI%)
HT29 = experiment: NCI60 antitumor screening; conditions: Homo sapiens, HT-29; 10 μM single dose; HT29 (colon cancer); read-out: growth inhibition percent (GI%)
BT-549 = experiment: NCI60 antitumor screening; conditions: Homo sapiens; 10 μM single dose; BT-549 (breast cancer); read-out: growth inhibition percent (GI%)
OVCAR-3 = experiment: NCI60 antitumor screening; conditions: Homo sapiens; 10 μM single dose; OVCAR-3 (ovarian cancer); read-out: growth inhibition percent (GI%)
SF-268 = experiment: NCI60 antitumor screening; conditions: Homo sapiens; 10 μM single dose; SF-268 (CNS cancer); read-out: growth inhibition percent (GI%)
NCI-H322M = experiment: NCI60 antitumor screening; conditions: Homo sapiens; 10 μM single dose; NCI-H322M (non-small cell lung cancer); read-out: growth inhibition percent (GI%)
ACHN = experiment: NCI60 antitumor screening; conditions: Homo sapiens; 10 μM single dose; ACHN (renal cancer); read-out: growth inhibition percent (GI%)
COLO 205 = experiment: NCI60 antitumor screening; conditions: Homo sapiens; 10 μM single dose; COLO 205 (colon cancer); read-out: growth inhibition percent (GI%)
SK-MEL-5 = experiment: NCI60 antitumor screening; conditions: Homo sapiens; 10 μM single dose; SK-MEL-5 (melanoma); read-out: growth inhibition percent (GI%)
OVCAR-5 = experiment: NCI60 antitumor screening; conditions: Homo sapiens; 10 μM single dose; OVCAR-5 (ovarian cancer); read-out: growth inhibition percent (GI%)
HS 578T = experiment: NCI60 antitumor screening; conditions: Homo sapiens; 10 μM single dose; HS 578T (breast cancer); read-out: growth inhibition percent (GI%)
T-47D = experiment: NCI60 antitumor screening; conditions: Homo sapiens, T47D; 10 μM single dose; T-47D (breast cancer); read-out: growth inhibition percent (GI%)
A498 = experiment: NCI60 antitumor screening; conditions: Homo sapiens; 10 μM single dose; A498 (renal cancer); read-out: growth inhibition percent (GI%)
M14 = experiment: NCI60 antitumor screening; conditions: Homo sapiens; 10 μM single dose; M14 (melanoma); read-out: growth inhibition percent (GI%)
HCT-116 = experiment: NCI60 antitumor screening; conditions: Homo sapiens; 10 μM single dose; HCT-116 (colon cancer); read-out: growth inhibition percent (GI%)
EKVX = experiment: NCI60 antitumor screening; conditions: Homo sapiens; 10 μM single dose; EKVX (non-small cell lung cancer); read-out: growth inhibition percent (GI%)
HCC-2998 = experiment: NCI60 antitumor screening; conditions: Homo sapiens; 10 μM single dose; HCC-2998 (colon cancer); read-out: growth inhibition percent (GI%)
MOLT-4 = experiment: NCI60 antitumor screening; conditions: Homo sapiens; 10 μM single dose; MOLT-4 (leukaemia); read-out: growth inhibition percent (GI%)
IGROV1 = experiment: NCI60 antitumor screening; conditions: Homo sapiens, IGROV-1; 10 μM single dose; IGROV1 (ovarian cancer); read-out: growth inhibition percent (GI%)
UACC-62 = experiment: NCI60 antitumor screening; conditions: Homo sapiens; 10 μM single dose; UACC-62 (melanoma); read-out: growth inhibition percent (GI%)
NCI-H23 = experiment: NCI60 antitumor screening; conditions: Homo sapiens; 10 μM single dose; NCI-H23 (non-small cell lung cancer); read-out: growth inhibition percent (GI%)
NCI-H460 = experiment: NCI60 antitumor screening; conditions: Homo sapiens; 10 μM single dose; NCI-H460 (non-small cell lung cancer); read-out: growth inhibition percent (GI%)
OVCAR-4 = experiment: NCI60 antitumor screening; conditions: Homo sapiens; 10 μM single dose; OVCAR-4 (ovarian cancer); read-out: growth inhibition percent (GI%)
PC-3 = experiment: NCI60 antitumor screening; conditions: Homo sapiens; 10 μM single dose; PC-3 (prostate cancer); read-out: growth inhibition percent (GI%)
NCI60 cell lines panel = experiment: NCI60 antitumor screening, full panel; conditions: for One-dose activity over the NCI60 panel: 10 μM; for inhibition at 10 µM: Homo sapiens, 10 μM single dose, mean over NCI60 cell lines, read-out: Mean growth inhibition percent (GI%)
Outline: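 Single-concentration screen at 10 μM across the NCI60 panel (leukaemia, NSCLC, colon, CNS, melanoma, ovarian, renal, prostate, breast). Results are expressed as percent growth inhibition (GI%) of treated lines.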

SK-MEL-28 = experiment: NCI60 antitumor screening; conditions: Homo sapiens; 10 μM single dose; SK-MEL-28 (melanoma); read-out: growth inhibition percent (GI%)
SF-539 = experiment: NCI60 antitumor screening; conditions: Homo sapiens; 10 μM single dose; SF-539 (CNS cancer); read-out: growth inhibition percent (GI%)
CCRF-CEM = experiment: NCI60 antitumor screening; conditions: Homo sapiens; 10 μM single dose; CCRF-CEM (leukaemia); read-out: growth inhibition percent (GI%)
HCT-15 = experiment: NCI60 antitumor screening; conditions: Homo sapiens; 10 μM single dose; HCT-15 (colon cancer); read-out: growth inhibition percent (GI%)
SF-295 = experiment: NCI60 antitumor screening; conditions: Homo sapiens; 10 μM single dose; SF-295 (CNS cancer); read-out: growth inhibition percent (GI%)
UO-31 = experiment: NCI60 antitumor screening; conditions: Homo sapiens; 10 μM single dose; UO-31 (renal cancer); read-out: growth inhibition percent (GI%)
SK-MEL-2 = experiment: NCI60 antitumor screening; conditions: Homo sapiens; 10 μM single dose; SK-MEL-2 (melanoma); read-out: growth inhibition percent (GI%)

Structure (SMILES): N#Cc1c(-c2ccc(F)cc2)nc(SCc2ccc([N+](=O)[O-])cc2)nc1N1CCNCC1 [4g, 4-(4-Fluorophenyl)-2-((4-nitrobenzyl)thio)-6-(piperazin-1-yl) pyrimidine-5-carbonitrile]
- inhibition at 10 µM (HL-60(TB)): < 10%
- inhibition at 10 µM (SN12C): < 10%
- inhibition at 10 µM (NCI/ADR-RES): < 10%
- inhibition at 10 µM (HT29): < 10%
- inhibition at 10 µM (BT-549): < 10%
- inhibition at 10 µM (OVCAR-3): < 10%
- inhibition at 10 µM (SF-268): < 10%
- inhibition at 10 µM (NCI-H322M): < 10%
- inhibition at 10 µM (ACHN): < 10%
- inhibition at 10 µM (COLO 205): < 10%
- inhibition at 10 µM (SK-MEL-5): < 10%
- inhibition at 10 µM (OVCAR-5): < 10%
- inhibition at 10 µM (HS 578T): < 10%
- inhibition at 10 µM (T-47D): < 10%
- inhibition at 10 µM (A498): < 10%
- inhibition at 10 µM (M14): < 10%
- inhibition at 10 µM (HCT-116): < 10%
- inhibition at 10 µM (EKVX): < 10%
- inhibition at 10 µM (HCC-2998): < 10%
- inhibition at 10 µM (MOLT-4): < 10%
- inhibition at 10 µM (IGROV1): < 10%
- inhibition at 10 µM (UACC-62): < 10%
- inhibition at 10 µM (NCI-H23): < 10%
- inhibition at 10 µM (NCI-H460): < 10%
- inhibition at 10 µM (OVCAR-4): < 10%
- inhibition at 10 µM (PC-3): < 10%
- One-dose activity over the NCI60 panel (NCI60 cell lines panel): inactive
- inhibition at 10 µM (NCI60 cell lines panel): < 10%
- inhibition at 10 µM (SK-MEL-28): < 10%
- inhibition at 10 µM (SF-539): < 10%
- inhibition at 10 µM (CCRF-CEM): < 10%
- inhibition at 10 µM (HCT-15): < 10%
- inhibition at 10 µM (SF-295): < 10%
- inhibition at 10 µM (UO-31): 11.9%
- inhibition at 10 µM (SK-MEL-2): < 10%

Structure (SMILES): CN1CCN(c2nc(SCc3ccc([N+](=O)[O-])cc3)nc(-c3ccc(F)cc3)c2C#N)CC1 [4k, 4-(4-Fluorophenyl)-6-(4-methylpiperazin-1-yl)-2-((4-nitrobenzyl)thio)pyrimidine-5-carbonitrile]
- inhibition at 10 µM (HL-60(TB)): < 10%
- inhibition at 10 µM (SN12C): 15.8%
- inhibition at 10 µM (NCI/ADR-RES): 25.1%
- inhibition at 10 µM (HT29): < 10%
- inhibition at 10 µM (BT-549): 46.5%
- inhibition at 10 µM (OVCAR-3): < 10%
- inhibition at 10 µM (SF-268): < 10%
- inhibition at 10 µM (NCI-H322M): 26.3%
- inhibition at 10 µM (ACHN): 31.5%
- inhibition at 10 µM (COLO 205): < 10%
- inhibition at 10 µM (SK-MEL-5): 16.4%
- inhibition at 10 µM (OVCAR-5): 16.8%
- inhibition at 10 µM (HS 578T): 42.6%
- inhibition at 10 µM (T-47D): 28.6%
- inhibition at 10 µM (A498): < 10%
- inhibition at 10 µM (M14): < 10%
- inhibition at 10 µM (HCT-116): 18.4%
- inhibition at 10 µM (EKVX): 22.4%
- inhibition at 10 µM (HCC-2998): < 10%
- inhibition at 10 µM (MOLT-4): 17.6%
- inhibition at 10 µM (IGROV1): < 10%
- inhibition at 10 µM (UACC-62): 19.8%
- inhibition at 10 µM (NCI-H23): 19.7%
- inhibition at 10 µM (NCI-H460): < 10%
- inhibition at 10 µM (OVCAR-4): < 10%
- inhibition at 10 µM (PC-3): 25.9%
- One-dose activity over the NCI60 panel (NCI60 cell lines panel): moderate activity against numerous cell lines
- inhibition at 10 µM (NCI60 cell lines panel): 17.5%
- inhibition at 10 µM (SK-MEL-28): 14.4%
- inhibition at 10 µM (SF-539): 41%
- inhibition at 10 µM (CCRF-CEM): 17.5%
- inhibition at 10 µM (HCT-15): 15.7%
- inhibition at 10 µM (SF-295): 29.3%
- inhibition at 10 µM (UO-31): 40%
- inhibition at 10 µM (SK-MEL-2): < 10%

Structure (SMILES): Cc1ccc(CSc2nc(-c3ccc(F)cc3)c(C#N)c(N3CCN(c4ccccc4)CC3)n2)cc1 [4p, 4-(4-Fluorophenyl)-2-((4-methylbenzyl)thio)-6-(4-phenylpiperazin-1-yl) pyrimidine-5-carbonitrile]
- inhibition at 10 µM (HL-60(TB)): < 10%
- inhibition at 10 µM (SN12C): < 10%
- inhibition at 10 µM (NCI/ADR-RES): < 10%
- inhibition at 10 µM (HT29): < 10%
- inhibition at 10 µM (BT-549): < 10%
- inhibition at 10 µM (OVCAR-3): < 10%
- inhibition at 10 µM (SF-268): 15.3%
- inhibition at 10 µM (NCI-H322M): < 10%
- inhibition at 10 µM (ACHN): < 10%
- inhibition at 10 µM (COLO 205): 12.2%
- inhibition at 10 µM (SK-MEL-5): 13.7%
- inhibition at 10 µM (OVCAR-5): < 10%
- inhibition at 10 µM (HS 578T): < 10%
- inhibition at 10 µM (T-47D): 12.3%
- inhibition at 10 µM (A498): < 10%
- inhibition at 10 µM (M14): 11%
- inhibition at 10 µM (HCT-116): 15.1%
- inhibition at 10 µM (EKVX): 20.3%
- inhibition at 10 µM (HCC-2998): < 10%
- inhibition at 10 µM (MOLT-4): < 10%
- inhibition at 10 µM (IGROV1): < 10%
- inhibition at 10 µM (UACC-62): 29.7%
- inhibition at 10 µM (NCI-H23): < 10%
- inhibition at 10 µM (NCI-H460): < 10%
- inhibition at 10 µM (OVCAR-4): 10.6%
- inhibition at 10 µM (PC-3): 25.1%
- inhibition at 10 µM (NCI60 cell lines panel): < 10%
- inhibition at 10 µM (SK-MEL-28): < 10%
- inhibition at 10 µM (SF-539): < 10%
- inhibition at 10 µM (CCRF-CEM): < 10%
- inhibition at 10 µM (HCT-15): 13.9%
- inhibition at 10 µM (SF-295): < 10%
- inhibition at 10 µM (UO-31): < 10%
- inhibition at 10 µM (SK-MEL-2): 15.1%
